Assay [1] deals with T1, Histone-lysine N-methyltransferase SMYD3 (Homo sapiens, UniProt Q9H7B4).
T1 sequence (Q9H7B4 whole entry): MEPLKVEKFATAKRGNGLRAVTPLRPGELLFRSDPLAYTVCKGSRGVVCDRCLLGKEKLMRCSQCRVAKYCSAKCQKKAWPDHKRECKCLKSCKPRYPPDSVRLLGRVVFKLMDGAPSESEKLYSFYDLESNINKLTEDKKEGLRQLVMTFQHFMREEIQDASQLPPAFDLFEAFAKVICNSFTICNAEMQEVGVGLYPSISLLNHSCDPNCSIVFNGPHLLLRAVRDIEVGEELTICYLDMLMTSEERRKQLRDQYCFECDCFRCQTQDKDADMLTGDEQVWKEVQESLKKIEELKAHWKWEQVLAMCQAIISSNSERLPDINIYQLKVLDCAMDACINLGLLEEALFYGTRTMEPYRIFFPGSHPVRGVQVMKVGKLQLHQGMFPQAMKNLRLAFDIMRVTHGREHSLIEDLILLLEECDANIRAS
Put plainly: Inhibition of human SMYD3 expressed in HEK293T/17 cells using FLAG-tagged MEKK2 as substrate incubated for 30 mins in low air flow area followed by incubation for 24 hrs at 37 degC by Western blot analysis. Format: cell-based, HEK-293T.

For assay [2], the target named is T1, Histone-lysine N-methyltransferase SMYD3. Put plainly: Inhibition of full length N-terminal His-tagged SMYD3 (1 to 428 residues) (unknown origin) expressed in Escherichia coli using N-terminal GST-tagged MEKK2 as substrate preincubated for 30 mins followed by substrate addition by scintillation proximity assay in presence of [3H]SAM.

A value given as a limit tells only on which side of the number the result lay.

For orientation: IC50 means the midpoint of a concentration-inhibition curve. As for `NC1CCN(S(=O)(=O)N2[C@@H]3CC[C@H]2C[C@@H](NC(=O)c2cc4c(cc2Cl)NC(=O)C4)C3)CC1`, the concentration for half-maximal inhibition (IC50) is 1100 nM in assay [1] and 1 nM in assay [2].
With `CN(C)C1CCN(S(=O)(=O)N2[C@@H]3CC[C@H]2C[C@@H](NC(=O)c2cc4c(cc2Cl)NC(=O)C4)C3)CC1`, the IC50 in assay [2] amounted to 3 nM.
As for `O=C1Cc2cc(C(=O)N[C@H]3C[C@H]4CC[C@@H](C3)N4S(=O)(=O)CC3CCN(CCCO)CC3)c(Cl)cc2N1`, the concentration for half-maximal inhibition (IC50) in assay [2] is 2 nM.
Take `N[C@H]1CC[C@H](S(=O)(=O)N2[C@@H]3CC[C@H]2C[C@@H](NC(=O)c2ccc4c(c2)CC(=O)N4)C3)CC1`: the 50% inhibitory concentration (IC50) turned out to be 2200 nM in assay [1] and 4 nM in assay [2].
`NCCCS(=O)(=O)N1CCC(NC(=O)c2ccc3c(c2)CC(=O)N3)CC1` showed an IC50 in assay [1] above 10000 nM.
On to `NC1CCN(S(=O)(=O)N2[C@@H]3CC[C@H]2C[C@@H](NC(=O)c2cc4c(cc2F)NC(=O)C4)C3)CC1`, for which, in assay [2], the IC50 stood at 5 nM.
Still for that read-out and setting: to `CN1CCC(CS(=O)(=O)N2[C@@H]3CC[C@H]2C[C@@H](NC(=O)c2ccc4c(c2)CC(=O)N4)C3)CC1` belongs 1 nM; to `CNC1CCN(S(=O)(=O)N2[C@@H]3CC[C@H]2C[C@@H](NC(=O)c2cc4c(cc2Cl)NC(=O)C4)C3)CC1`, 2 nM; to `NC1CCN(S(=O)(=O)N2[C@@H]3CC[C@H]2C[C@@H](NC(=O)c2ccc4c(c2)CC(=O)N4)C3)CC1`, 1 nM.
Turning to `O=C1Cc2cc(C(=O)N[C@H]3C[C@H]4CC[C@@H](C3)N4S(=O)(=O)C[C@H]3CCCNC3)c(Cl)cc2N1`, the values for the IC50 in assay [1] and in assay [2] were 1300 nM and 4 nM, respectively.
Take `NCCCS(=O)(=O)N1CCC(NC(=O)c2cc3c(cc2Cl)NC(=O)C3)CC1`: the IC50 in assay [2] was determined as 80 nM.
In the case of `Cc1cc2c(cc1C(=O)N[C@H]1C[C@H]3CC[C@@H](C1)N3S(=O)(=O)N1CCC(N)CC1)CC(=O)N2`, the half-inhibitory concentration (IC50) in assay [1] worked out at 410 nM.
`O=C1Cc2cc(C(=O)N[C@H]3C[C@H]4CC[C@@H](C3)N4S(=O)(=O)CC3CCNCC3)c(Cl)cc2N1`: the IC50 is 3200 nM in assay [1] and 4 nM in assay [2].
The corresponding values for `O=C1Cc2cc(C(=O)NC3CCN(S(=O)(=O)CC4CCNCC4)CC3)ccc2N1` are above 10000 nM and 70 nM.

The values above are taken from ChEMBL document CHEMBL3797202, “Novel Oxindole Sulfonamides and Sulfamides: EPZ031686, the First Orally Bioavailable Small Molecule SMYD3 Inhibitor” (ACS Med Chem Lett, 2016).
